From publication PMC3266923, “Augmenter of Liver Regeneration (alr) Promotes Liver Outgrowth during Zebrafish Hepatogenesis” (PLoS ONE, 2012)

Columns and labels:
[1] = biological target: T1, zebrafish Alr (Danio rerio, UniProt A4QNU9); assay: Ellman's reagent (free thiol) time course; assay type: biochemical; conditions: room temperature
T1 construct: gene gfer; full-length ORF (191 residues) in pET28b, N-terminal His-tag, expressed in E. coli BL21-DE3, Ni-NTA purified under native condition; about 23 kDa monomer, disulfide-linked dimer
T1 sequence (A4QNU9 1-191): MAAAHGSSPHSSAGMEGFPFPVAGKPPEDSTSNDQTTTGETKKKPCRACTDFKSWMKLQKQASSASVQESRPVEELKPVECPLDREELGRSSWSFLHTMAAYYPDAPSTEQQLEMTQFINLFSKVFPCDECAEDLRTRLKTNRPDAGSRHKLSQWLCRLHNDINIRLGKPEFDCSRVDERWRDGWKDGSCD

[2] = biological target: T1, zebrafish Alr; assay: UV-visible absorption spectrum of purified protein; assay type: binding; conditions: 15 uM protein, free FAD as reference; FAD co-purified from E. coli
[3] = biological target: T2, zebrafish Alr (Danio rerio, UniProt A4QNU9, C131S); assay: UV-visible absorption spectrum of purified protein; assay type: binding; conditions: 15 uM protein, free FAD as reference; FAD co-purified from E. coli
T2 construct: gene gfer; full-length ORF (191 residues) in pET28b, N-terminal His-tag, expressed in E. coli BL21-DE3, Ni-NTA purified under native condition; about 23 kDa monomer, disulfide-linked dimer
T2 sequence (A4QNU9 1-191 C131S): as the sequence (A4QNU9 1-191) above, with C131S counted along it

Compound | Ellman's reagent (free thiol) time course [1] | UV-visible absorption spectrum of purified protein [2] | UV-visible absorption spectrum of purified protein [3]
OC(CS)C(O)CS (stereo not drawn) [DTT] | Zebrafish Alr oxidized DTT efficiently, while Alr^C131S completely lost this activity | – | –
Cc1cc2nc3c(=O)[nH]c(=O)nc-3n(C[C@H](O)[C@H](O)[C@H](O)COP(=O)(O)OP(=O)(O)OC[C@H]3O[C@@H](n4cnc5c(N)ncnc54)[C@H](O)[C@@H]3O)c2cc1C [FAD] | – | Zebrafish Alr also binds FAD as determined by spectroscopic absorption | wild type Alr protein and mutant Alr^C131S protein are characteristic of the FAD moiety
